Test results published in PubChem BioAssay (NCI).
Values joined by “and” are separate entries in the source; they are usually repeats but may differ in a detail not shown here. Equal entries are not always repeated.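 Cells were grown in 96-well plates and exposed to each compound for 48 hours at five concentrations; endpoints were interpolated linearly between bracketing concentrations, or set to the highest concentration if not reached. The concentration for 50% growth inhibition is given as GI50. TGI: total growth inhibition.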

Key:
Assay in all cases: growth of human tumour cells (NCI), 48 h
[1] = test system: RXF 393 renal
[2] = test system: COLO 205 colon
[3] = test system: U251 CNS
[4] = test system: LOX IMVI melanoma
[5] = test system: NCI-H23 lung
[6] = test system: HCT-116 colon
[7] = test system: HOP-62 NSCLC
[8] = test system: SF-539 CNS
[9] = test system: SNB-19 CNS
[10] = test system: SK-MEL-28 melanoma

Row | Structure (SMILES) | GI50 [1] | TGI [1] | GI50 [2] | TGI [2] [µM] | GI50 [3] | TGI [3] [µM] | GI50 [4] | TGI [4] | GI50 [5] | TGI [5] [µM] | GI50 [6] | TGI [6] [µM] | GI50 [7] | TGI [7] [µM] | GI50 [8] | TGI [8] | GI50 [9] | TGI [9] [µM] | GI50 [10] | TGI [10] [µM]
1 | CC1=C(CCC(C)NCc2ccc(OCCCN3CCCCC3)cc2)C(C)(C)CCC1 (stereo not given) | 1.6 µM | 3.06 µM | 0.197 µM | 0.427 | 1.57 µM | 3.28 | 1.44 µM | 2.85 µM | 1.73 µM | 3.82 | 1.53 µM | 3.13 | 1.84 µM | 3.64 | 1.64 µM | 3.22 µM | 2.01 µM | 4.26 | 1.38 µM | 2.83
2 | CN(C)c1ccc(C(=NO)c2ccc(N(C)C)cc2)cc1 | 1.46 µM | 5.03 µM | 3.51 µM | 22.4 | 2.68 µM | > 100 | 6.29 µM | > 100 µM | 5.42 µM | > 100 | 2.53 µM | > 100 | 6.1 µM | > 100 | 3.38 µM | > 100 µM | 4.04 µM | > 100 | 5.3 µM | > 100
3 | O=c1c(O)c(-c2ccc(O)c(O)c2)oc2cc(O)cc(O)c12 | 11.7 µM | 50.9 µM and > 100 µM | 60.8 µM | > 100 | 8.68 µM | > 100 | 11.4 µM | > 84.1 µM and 35.9 µM | 9.65 µM | 50 | 16.9 µM | > 100 | 15.6 µM | > 100 | 6.04 µM | 37.2 µM and > 100 µM | 13.1 µM | > 100 | 17.9 µM | > 100
4 | CCC[CH2][Sn]1([CH2]CCC)[O]C2C(CO)OC(n3ccc(N)nc3=O)C2[O]1 (stereo not given) | 1.22 µM | 2.48 µM | 1.48 µM | 3.15 | 1.52 µM | 2.87 | 0.384 µM | 1.65 µM | 1.35 µM | 3.08 | 1.44 µM | 2.79 | 2.24 µM | 3.99 | 1.41 µM | 2.72 µM | 1.55 µM | 2.93 | 1.29 µM | 2.66
5 | CC(C)(c1ccccc1)c1ccc(Oc2ccc(C#N)c(C#N)c2)cc1 |  | > 100 µM | > 100 µM | > 100 |  | > 100 | > 100 µM | > 100 µM |  | > 100 |  | > 100 | > 100 µM | > 100 | > 100 µM | > 100 µM |  | > 100 | > 100 µM | > 100
6 | COC(=O)C1=C(C)NC(C)=C(C(=O)OCC(C)C)C1c1ccccc1[N+](=O)[O-] (stereo not given) | 2.11 µM | 8.31 µM | 13.3 µM | 26 | 4.27 µM | 17.6 | 3.07 µM | 16.6 µM | 3.47 µM | 16.5 | 3.02 µM | 12.1 | 5.24 µM | 18.4 | 5.3 µM | 16.8 µM | 8.2 µM | 64.3 | 4.18 µM | 15.2
7 | CC1(C)CC2CC(CC(C)(C)C2=O)C1=O |  | > 100 µM |  | > 100 |  | > 100 |  | > 100 µM |  | > 100 |  | > 100 |  | > 100 |  | > 100 µM |  | > 100 |  | > 100
8 | COc1cccc(-c2cc3c4c(nc5ccccc53)C(=O)c3cccnc3-c4n2)c1 | 2.47 µM | 9.91 µM | 5.56 µM | 10.9 | 1.66 µM | 7.13 | 2.31 µM | > 100 µM | 1.47 µM | 4.28 | 1.3 µM | 5.75 | 4.2 µM | 12.3 | 3.28 µM | 10.3 µM | 4.2 µM | 11.2 | 10.2 µM | 22.3
9 | Cc1ccc(-c2nc3nc(-c4ccccc4)nc(N4CCNCC4)c3o2)cc1 | 1.43 µM | 2.97 µM | 0.208 µM | 0.423 | 0.181 µM | 0.338 | 0.177 µM | 0.323 µM | 1.8 µM | 3.53 | 0.185 µM | 0.337 | 1.48 µM | 2.98 | 0.703 µM | 1.85 µM | 1.06 µM | 2.58 | 1.89 µM | 3.43
10 | COc1ccccc1CNCCCN1C(=O)c2ccc3c4c(ccc(c24)C1=O)C(=O)N(CCCN)C3=O | 0.628 µM | 1.83 µM | 0.814 µM | 2.12 | 1.77 µM | 3.99 | 0.685 µM | 2.87 µM | 0.94 µM | 3.74 | 0.349 µM | 1.23 | 1.42 µM | 2.95 | 1.21 µM | 2.5 µM | 1.58 µM | 3.37 | 1.74 µM | 3.75
11 | COc1ccc(/C=C(\C(=O)NCc2cccnc2)S(=O)(=O)c2ccccc2)cc1OC | 2.08 µM | 4.26 µM | 2.77 µM | 6.63 | 3.09 µM | 14 | 3.09 µM | 11.8 µM | 3.01 µM | 10.6 | 2.11 µM | 6.12 | 3.51 µM | 11.4 | 2.49 µM | 6.74 µM | 3.69 µM | 13.1 | 3.06 µM | 10.5
12 | N#CSCc1ccc(Cl)c(CSC#N)c1 | 0.559 µM | 12.3 µM | 0.0513 µM | 11.4 | 9.12 µM | 28.4 | 0.151 µM | 13.6 µM | 0.913 µM | 44.5 | 0.0379 µM | 14.8 | 7.25 µM | > 66.9 | 0.117 µM | 16.6 µM | 10.5 µM | > 100 | 3.58 µM | 22.4
13 | CC[C@H](CO)Nc1nc(NCc2ccccc2)c2ncn(C(C)C)c2n1 |  | > 52.4 µM |  | 36.6 | 40 µM | > 100 |  | > 84.1 µM |  | 41.9 | 11.1 µM | > 100 | 29.4 µM | > 94 |  | 53.6 µM | 26.4 µM | > 100 | 21.5 µM | 74.9
14 | O=[N+]([O-])c1ccc(N=Nc2ccc(O)c3ccccc23)cc1 | 4.87 µM | 39.4 µM | 13.2 µM | 32.1 | 3.12 µM | 25.8 | 2.5 µM | 13.6 µM | 1.79 µM | 6.88 | 2.02 µM | 13.8 | 20.3 µM | > 100 | 10.3 µM | > 100 µM | 4.76 µM | > 100 | 6.59 µM | > 100
15 | CN1CCc2[nH]nc(-c3n[nH]c4c3CN(C)CC4)c2C1 |  | > 100 µM |  | > 100 |  | > 100 |  | > 100 µM |  | > 100 |  | > 100 |  | > 100 |  | > 100 µM |  | > 100 |  | > 100
16 | OCCn1cnc2c(SCc3ccccc3)ncnc21 |  | > 100 µM |  | > 100 |  | > 100 |  | > 100 µM |  | > 100 |  | > 100 |  | > 100 |  | > 100 µM |  | > 100 |  | > 100
17 | O1[As]2O[As]3O[As]1O[As](O2)O3 | 0.502 µM | 1.85 µM | 1.67 µM | 4.5 | 0.294 µM | 1.25 | 0.657 µM | 2.13 µM | 0.733 µM | 4.98 | 1.27 µM | 2.8 | 1 µM | 2.55 | 0.347 µM | 1.71 µM | 1.65 µM | 4.44 | 1.02 µM | 2.45
18 | O=C(NC(=Nc1ccccc1)SCCSC(=Nc1ccccc1)NC(=O)c1cccs1)c1cccs1 |  | 68.9 µM |  | > 100 |  | > 100 |  | > 100 µM |  | > 100 |  | > 100 |  | > 100 |  | > 100 µM |  | > 100 |  | > 100
19 | CN(C)CC1CCC2=C(C1=O)C(c1ccc(Cl)c(Cl)c1)C1=C(CCC(CN(C)C)C1=O)O2 (stereo not given) | 9.18 µM | 22.5 µM | 5.48 µM | 19.6 | 11.7 µM | 23.9 | 3.14 µM | 15.2 µM | 3.6 µM | 11.9 | 10.4 µM | 23.4 | 12.5 µM | 25.2 | 6.01 µM | 18.2 µM | 16 µM | 29.7 | 17.6 µM | 34.6
20 | NC(=O)c1ccc(-c2nc(-c3ccc4c(c3)OCO4)c(-c3ccccn3)[nH]2)cc1 | > 25 µM and 12.6 µM | > 25 µM and 49.4 µM | > 25 µM and 31.4 µM | > 100 | > 25 µM and 44.5 µM | > 100 | > 25 µM and 26.9 µM | > 84.4 µM | > 25 µM and 46.3 µM | > 100 | > 25 µM and 30.4 µM | > 100 | > 25 µM and 43 µM | > 100 | > 25 µM and 49 µM | > 100 µM | > 25 µM and 54.6 µM | > 100 | > 25 µM and 51.1 µM | > 100
21 | CC(C)CCNCC(O)Cn1c2ccccc2c2ccccc21 (stereo not given) | 5.36 µM | 19.9 µM | 2 µM | 3.95 | 10.5 µM | 23.5 | 5.6 µM | 18.5 µM | 16.4 µM | 31.9 | 9.47 µM | 24.1 | 15.4 µM | 29.7 | 15.8 µM | 30.2 µM | 13.8 µM | 28.8 | 4.42 µM | 16.1
22 | O=C(N/C(=C\c1ccc(/C=C(\NC(=O)c2ccccc2)c2nc3ccccc3[nH]2)cc1)c1nc2ccccc2[nH]1)c1ccccc1 |  | > 100 µM |  | > 100 |  | > 100 |  | > 100 µM |  | > 100 |  | > 100 |  | > 100 |  | > 100 µM |  | > 100 |  | > 100
23 | COc1ccc(COC2CC(OC)OC(C)C2OC(=O)c2ccccc2)cc1 (stereo not given) |  | > 96.6 µM |  | > 95 |  | > 100 |  | 67.9 µM |  | > 92.6 |  | > 84 |  | > 100 |  | > 100 µM |  | > 100 |  | > 100
24 | Oc1c(Cl)c(Cl)c(O)c2c1CCCC2 |  | 22.5 µM |  | 3.74 |  | 42.7 |  | 78.6 µM |  | 40.8 |  | 2.83 |  | 51.6 |  | 23.5 µM |  | 30.5 |  | 27.7
25 | COC(=N)c1c(N)[n+]([O-])c2ccc(F)cc2[n+]1[O-] | > 100 µM | > 100 µM | 61.7 µM | > 100 | > 100 µM | > 100 | > 100 µM | > 100 µM | > 100 µM | > 100 | > 100 µM | > 100 | > 100 µM | > 100 | > 100 µM | > 100 µM | > 100 µM | > 100 | > 100 µM | > 100
